In US6703382B2, “Small molecule inhibitors targeted at Bcl-2” (Georgetown University Medical Center, priority 2000, dated 2004):
pIC50: −log10 of the molar value.

Legend:
[1] = target: Bcl-2 (GST-fused soluble protein) / Flu-Bak-BH3 peptide (Homo sapiens, UniProt P10415); details: competitive FP assay, FIG. 1
[2] = tested on: HL-60 cells; experiment: Trypan-blue exclusion cell survival assay, HL-60; assay type: cell-based; details: Homo sapiens; HL-60, trypan-blue exclusion; read-out: cell killing IC50
Protocol: (§1) FIG. 3. Illustrated the effects of the compound of formula II on cell viability. Cells are plated in 24-well plates, incubated with said compound at appropriate concentrations for 14 hr. Cell viability is determined by trypan blue exclusion with hemocytometer. Percent of viable cells, as compared with untreated cells, is plotted against drug concentration.
(§2) The ability of Formula II to inhibit cell viability is highly specific and correlates well with the Bcl-2 protein expression level in these cancer cells.

[3] = tested on: T 47D cells; experiment: Hoechst Dye apoptosis assay, T47D; assay type: cell-based, human; details: 10 μM, 12 hours, low Bcl-2 expression
Excerpt: (§3) Bcl-2 protein expression in human breast and other cancer cell line is characterized herein. Cell lines MCF-7, MDA-231 and MDA-361 express high levels of Bcl-2; MDA-468, BT474 and MDA-435 express median levels. […] Human myeloid leukemia cell HL-60 expresses the highest level of Bcl-2 protein among all the cell lines examined. Accordingly, MDA-231 and HL-60 cell lines with high Bcl-2 expression are positive cells and MDA-453 and T47D are negative control cells. The level of Bcl-2 protein expression is detected by Western blotting.
(§4) Using a Hoechst Dye assay, cells are treated at different doses for 12 hours and apoptotic cells are visually identified and counted under the microscope. Induction of apoptosis is evident after the treatment with Formula II at 10 μM in MDA-453 or T 47D cell lines, cells with low Bcl-2 expression.

[4] = tested on: MDA-231 cells; experiment: Trypan-blue exclusion cell survival assay, MDA-231; assay type: cell-based; details: Homo sapiens, MDA-MB-231; MDA-231, trypan-blue exclusion; read-out: cell killing IC50
Protocol: as §1, §2

[5] = tested on: MDA-453 cells; experiment: Hoechst Dye apoptosis assay, MDA-453; assay type: cell-based, human; details: 10 μM, 12 hours, MDA-453, low Bcl-2 expression
Excerpt: as §3, §4

[6] = tested on: MDA-231 cells; experiment: Hoechst Dye apoptosis assay, MDA-231; assay type: cell-based, human; details: 10 μM, 12 hours, MDA-231, high Bcl-2 expression
Excerpt: as §3, §4

[7] = tested on: MDA-231 cells; experiment: Annexin-V FACS apoptosis assay, MDA-231; assay type: cell-based, human; details: 24 hours
Protocol: (§5) The Annexin-V FACS assay yields a more quantitative assessment of the ability of Formula II to induce of apoptosis in HL-60 and MDA-231 cells. MDA-231 cells treated with 0 (untreated), 4 and 10 μM of Formula II for 24 hours provide 0, 13% and 20.0% apoptotic cells, respectively, while HL-60 cells treated with 0, 5, 10, and 20 μM of Formula II for 24 hours provide 0, 24%, 31% and 67% of apoptotic cells, respectively (FIG. 3). Therefore, Formula II induces apoptosis in a highly dose-dependent manner in MDA-231 and HL-60 cell lines with Bcl-2 protein overexpression.

[8] = tested on: HL-60 cells; experiment: Annexin-V FACS apoptosis assay, HL-60; assay type: cell-based, human; details: 24 hours
Protocol: as §5

[9] = tested on: HL-60 cells; experiment: Hoechst Dye apoptosis assay, HL-60; assay type: cell-based, human; details: 10 μM, 12 hours, HL-60, high Bcl-2 expression
Excerpt: as §3, §4

Chain of Bcl-2 (GST-fused soluble protein) / Flu-Bak-BH3 peptide (P10415 1-205 limits assumed): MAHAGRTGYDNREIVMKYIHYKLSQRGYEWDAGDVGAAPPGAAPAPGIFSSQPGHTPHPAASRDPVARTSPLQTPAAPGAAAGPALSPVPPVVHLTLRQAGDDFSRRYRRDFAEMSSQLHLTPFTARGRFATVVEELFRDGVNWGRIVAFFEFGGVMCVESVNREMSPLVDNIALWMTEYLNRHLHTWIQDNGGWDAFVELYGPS

Q: Which “inhibition of the binding of the Bak-BH3 peptide to Bcl-2 in vitro” value [1] does the source give for `COc1ccc2c(c1)CCc1cc(OC)ccc1[N+]([O-])=[N+]2[O-]` [Formula II, 2,9-dimethoxy-11,12-dihydrodibenzo[c,g][1,2] diazocine-5,6-dioxide] here?
A: Its value is “inhibits the binding”.

Q: What about the pIC50 [2] of the same molecule?
A: Its pIC50 is 4.92.

Q: What about the induction of apoptosis [3] of the same molecule?
A: The induction of apoptosis was “evident”.

Q: What about the pIC50 [4] of the same molecule?
A: The pIC50 was 4.82.

Q: What about the induction of apoptosis [5] of the same molecule?
A: Its induction of apoptosis is “evident”.

Q: What about the induction of apoptosis [6] of the same molecule?
A: The induction of apoptosis was “significant apoptosis”.

Q: And the apoptotic cells ([7]; MDA-231, 4 μM)?
A: Its apoptotic cells is 13%.

Q: And the apoptotic cells ([7]; MDA-231, 10 μM)?
A: The apoptotic cells was 20.0%.

Q: What about the apoptotic cells ([8]; HL-60, 5 μM) of the same molecule?
A: The apoptotic cells was 24%.

Q: And the apoptotic cells ([8]; HL-60, 10 μM)?
A: Its apoptotic cells is 31%.

Q: And the apoptotic cells ([8]; HL-60, 20 μM)?
A: The apoptotic cells was 67%.

Q: And the induction of apoptosis [9]?
A: The induction of apoptosis was “significant apoptosis”.
